Measured values from patent publication US11446391B2, “Amphiphilic dye-coated inorganic nanoparticle clusters” (THE TRUSTEES OF THE UNIVERSITY OF PENNSYLVANIA, priority 2017, dated 2022).

Key:
GBM = GBM patients, PDT; cited from earlier work
[1] = Vials of free Ce6 or Ce6 nanoclusters in water; assay type: physicochemical; conditions: equal concentrations of Ce6
Method: FIG. 43 is a photograph of vials containing solution with free Ce6 or Ce6 nanoclusters in water (at equal concentrations of Ce6).
The size distribution of Ce6 nanoclusters was measured by dynamic light scattering (DLS) in water at 25° C. (FIG. 39). The amphiphilic Ce6 molecules solubilized the PCL, creating stable nanoclusters with an average hydrodynamic diameter of 58±4 nm and an average polydispersity index (PDI) of <0.2. Fluorescence detection takes place when Ce6 is excited at around 404 nm, which then emits a characteristic reference fluorescence peak at approximately 650 nm (FIG. 40).

[2] = Ce6 at 667 nm, PpIX at 631 nm; in M-1cm-1 (unit assumed); cited from earlier work
[3] = Absorbance spectrum in water (solubility); assay type: physicochemical
Method: FIGS. 22A-22D. (FIG. 22A) Illustration of Ce6-coated SPION nanoclusters (Ce6-SCs). Iron oxide nanoparticles are stabilized in aqueous media by the self-assembly of amphiphilic PS Chlorin e6 on the surface using a microemulsion. (FIG. 22B) Dynamic light scattering (DLS) of Ce6-SCs in water. […] (FIG. 22C) Particle size and T2 relaxation time was monitored for 6 days in water at 25° C. (FIG. 22D) Magnetic resonance (MR) relaxometry measurements of Ce6-SCs. Inset: T2-weighted image of Ce6-SCs at various concentrations in a microplate. (FIG. 22E) Absorbance spectra of Ce6-SCs (black) and free Ce6 (brown) in water. The inset images are vials containing solutions of Ce6-SCs and free Ce6 in water.
Relaxometry measurements indicated an average r2 value of 301±4 mM^−1 s^−1 and MR images of a phantom confirmed strong T2 contrast relative to water (FIG. 22D).

Molecule	adverse events (GBM)	overall survival (GBM) [months]	behaviour in water [1]	peak extinction coefficient [2]	solubility in water judged from absorbance spectrum (peak at ~665 nm) [3]
C=Cc1c(C)c2cc3nc(c(CC(=O)N[C@@H](CC(=O)O)C(=O)O)c4[nH]c(cc5nc(cc1[nH]2)C(C)=C5CC)c(C)c4C(=O)O)[C@@H](CCC(=O)O)[C@@H]3C [talaporfin, mono-L-aspartyl chlorin e6]	only mild adverse events	24.8	–	–	–
Chlorin e6 [Ce6]	–	–	aggregate and precipitate in water	55,000	poor solubility
